{"source": "patent US9426996B2", "about": "“Use of benzoxaboroles as volatile antimicrobial agents on meats, plants, or plant parts” (AgroFresh Inc., priority 2013, dated 2016)", "key": {"[1]": {"system": "Botrytis cinerea", "assay": "in vitro inhibition assay for volatile antimicrobial compounds (12-well PDA plates)", "type": "cell-based", "conditions": "in vitro; volatile; 14 days at 4° C.", "method": "12-Well (7 milliliter (mL volume per well) microtiter plates are used for the in vitro inhibition assay for volatile antimicrobial compounds. A 3-mL volume of full-strength Potato Dextrose Agar (PDA) is added to each well. After cooling, 1 microliter (μL) of 1×10^6 per mL Botrytis cinerea spore suspension is spot pipetted to the center of the agar. For the first experiment, inoculated plates are allowed to germinate for 5 days at 4° C. For the second experiment, plates are inoculated immediately prior to volatile fungicide treatment. Small Whatman #1 filter disks (Cat. No. 1001-0155) are placed, in duplicate, on the underside of a polyethylene PCR plate sealing film.\nThe acetone is permitted to evaporate for 5 minutes. The headspace around the Botrytis cinerea inoculum is then sealed inside the well by the film with the adhering disk containing the fungicide. Plates are inverted, placed over the treated disks and sealed to prevent any of the chemical from flaking from the disk and falling onto the inoculated agar. After 14 days of storage at 4° C., cultures are evaluated for percent growth relative to control. Regardless of whether the spores had germinated for 5 days, or if the treatment commenced soon after inoculation of the plates (˜15 minutes); there is 100% control of the fungal pathogen down to 0.005 mg.\nA total of 14 antimicrobial compounds are tested using the in vitro inhibition assay described in Example 1. All 14 compounds are applied to the Whatman disks, in duplicate, in a dose dependent manner (0.31 to 0.0006 mg/disk). […] Other compounds, such as Compound C, Compound D, and Compound E conferred 100% control down to 0.023, 0.04, and 0.08 mg/disk, respectively. Results of nine compounds are summarized in Table 2, where the other five compounds show no detected activity in the ranges tested. […]"}, "[2]": {"system": "Penicillium expansum", "assay": "in vivo contact drench assay on apples", "method": "In order to assess the activity of Compound A (FIG. 1) as a contact drench fungicide, an in vivo assay is developed. […] Compound A is dissolved in water to achieve a final treatment solution concentration of 250, 50, or 10 mg/L. The fruit is dipped in Compound A solution for 1 minute and allowed to dry for 1 hour. Fruit wounds are then inoculated with 30 μL of 1×10^6 per mL Penicillium expansum spore suspension (apple) or Penicillium digitatum spore suspension (orange). Clamshells are then placed in a 10.8-cup SnapWare airtight container (Model #109842) and incubated for 3 days at 21° C."}, "[3]": {"system": "Botrytis cinerea", "assay": "in vitro spore germination and mycelial growth after transfer", "type": "cell-based", "conditions": "for Mycelial growth after transfer (%): 3 d after transfer to clean PDA", "method": "In order to assess the activity of Compound A as a volatile fungicide, an in vitro assay is developed to evaluate spore germination. 3.5-cm Petri plates are filled with 2 mL of water agar. After cooling, 1 μL of 1×10^5 per mL Botrytis cinerea spore suspension is spot-pipetted into the center of the plate. Plates are inoculated immediately prior to volatile fungicide treatment. A Whatman #1 filter disk (Cat. No. 1001-0155) is placed, in duplicate, on the underside of a plate lid. […] After 24 hours of storage at 23° C., 100 spores are counted for percent germination, where germination is defined as a germ tube that has extended a distance greater than the length of the spore. After counting, treatment is removed, and the plates are resealed. After an additional 24 hours, 100 spores are again counted. Plugs are then transferred to a clean plate containing full-strength PDA and allowed to incubate at 23° C. for an additional three days."}, "[4]": {"system": "Phytophthora capsici", "assay": "in vivo volatile assay on squash", "conditions": "10 mg/L, 21° C. for 3 days", "method": "To test the effect of Compound A (FIG. 1) on vegetables, potato, onion and squash were obtained from a local store, and the surface sterilized with 0.825% sodium hypochlorite (NaOCl). A slice of potato or two leaves of onion were placed in a sterile Petri plate, while whole squash were placed in a sterile 10.8-cup SnapWare airtight container (Model #109842). Each slice of potato was inoculated with 20 μL of a 1×10^5 spores/mL Fusarium sambucinum suspension, while onions were inoculated with 20 μL of a 1×10^6 spores/mL Botrytis cinerea suspension. For inoculation of squash, a small core was removed, and a mycelial plug of Phytophthora capsici was inserted and capped with the core. Compound A was diluted in acetone, and added to a 42.5 mm Whatman #1 filter disk (Cat. No. 1001-042) attached to the inner side of the lid at a rate to achieve a final headspace concentration of 10 mg/L. The acetone was permitted to evaporate for 5 minutes before parafilm sealing the plates or closing the airtight containers. The vegetables were incubated at 21° C. for 3 days, and evaluated for mycelial growth, dry rot, and water-soaked appearance (mm diameter) with results summarized in Table 13."}, "[5]": {"system": "Botrytis cinerea", "assay": "in vivo volatile bioassay using green table grape", "method": "In order to assess the in vivo activity of volatile antimicrobial compounds, a volatile bioassay is developed using green table grape. Fruit are placed individually inside a 20 mL scintillation vial, with the stem wound facing upwards. The fresh stem wound is inoculated with 10 μL of 1×10^6 per mL Botrytis cinerea spore suspension. Whatman filter paper (Cat. No. 1822-024) is placed inside duplicate vial caps. […] The acetone is permitted to evaporate for 5 minutes. The vials are then capped with the lids containing the fungicide, and placed for 14 days at 4° C. After storage, fruit are evaluated for incidence of disease and appearance of phytotoxicity."}}}
{"smiles": "OB1OCc2cc(F)ccc21", "note": "[Compound A]", "values": [{"measurement": "lowest rate with 100% control of Botrytis cinerea", "setting": "[1]", "value": 0.005, "unit": "mg/disk"}, {"measurement": "Browning (mm)", "setting": "[2]; dip 10 mg/L", "value": 8.5, "unit": "mm"}, {"measurement": "Sporulation (mm)", "setting": "[2]; dip 10 mg/L", "value": 2.1, "unit": "mm"}, {"measurement": "Browning (mm)", "setting": "[2]; dip 50 mg/L", "value": 3.7, "unit": "mm"}, {"measurement": "Sporulation (mm)", "setting": "[2]; dip 50 mg/L", "value": 1.6, "unit": "mm"}, {"measurement": "Browning (mm)", "setting": "[2]; dip 250 mg/L", "value": 0.8, "unit": "mm"}, {"measurement": "Sporulation (mm)", "setting": "[2]; dip 250 mg/L", "value": 0.5, "unit": "mm"}, {"measurement": "Spore germination (%)", "setting": "[3]; 0.07 mg/L, 24 h + 24 h after treatment removal", "value": 10.0, "unit": "%"}, {"measurement": "Spore germination (%)", "setting": "[3]; 0.07 mg/L, 24 h treatment", "value": 0.0, "unit": "%"}, {"measurement": "Mycelial growth after transfer (%)", "setting": "[3]; 0.07 mg/L", "value": 60.3, "unit": "%"}, {"measurement": "Spore germination (%)", "setting": "[3]; 0.14 mg/L, 24 h + 24 h after treatment removal", "value": 0.0, "unit": "%"}, {"measurement": "Spore germination (%)", "setting": "[3]; 0.14 mg/L, 24 h treatment", "value": 0.0, "unit": "%"}, {"measurement": "Mycelial growth after transfer (%)", "setting": "[3]; 0.14 mg/L", "value": 53.8, "unit": "%"}, {"measurement": "Spore germination (%)", "setting": "[3]; 0.28 mg/L, 24 h + 24 h after treatment removal", "value": 0.0, "unit": "%"}, {"measurement": "Spore germination (%)", "setting": "[3]; 0.28 mg/L, 24 h treatment", "value": 0.0, "unit": "%"}, {"measurement": "Mycelial growth after transfer (%)", "setting": "[3]; 0.28 mg/L", "value": 51.3, "unit": "%"}, {"measurement": "Spore germination (%)", "setting": "[3]; 0.56 mg/L, 24 h + 24 h after treatment removal", "value": 0.0, "unit": "%"}, {"measurement": "Spore germination (%)", "setting": "[3]; 0.56 mg/L, 24 h treatment", "value": 0.0, "unit": "%"}, {"measurement": "Mycelial growth after transfer (%)", "setting": "[3]; 0.56 mg/L", "value": 43.3, "unit": "%"}, {"measurement": "Spore germination (%)", "setting": "[3]; 71.4 mg/L, 24 h + 24 h after treatment removal", "value": 0.0, "unit": "%"}, {"measurement": "Spore germination (%)", "setting": "[3]; 71.4 mg/L, 24 h treatment", "value": 0.0, "unit": "%"}, {"measurement": "Mycelial growth after transfer (%)", "setting": "[3]; 71.4 mg/L", "value": 0.0, "unit": "%"}, {"measurement": "Spore germination (%)", "setting": "[3]; 142.9 mg/L, 24 h + 24 h after treatment removal", "value": 0.0, "unit": "%"}, {"measurement": "Spore germination (%)", "setting": "[3]; 142.9 mg/L, 24 h treatment", "value": 0.0, "unit": "%"}, {"measurement": "Mycelial growth after transfer (%)", "setting": "[3]; 142.9 mg/L", "value": 0.0, "unit": "%"}, {"measurement": "fungicidal or fungistatic effect", "setting": "[3]; treated spores after the compound has been removed", "value": "fungicidal effect"}, {"measurement": "Mycelial growth", "setting": "[4]", "value": 1.1, "unit": "mm"}, {"measurement": "Water soaked", "setting": "[4]", "value": 5.3, "unit": "mm"}, {"measurement": "Botrytis inhibition % (in vivo)", "setting": "[5]; 0.005 mg per disk, 14 days at 4° C.", "value": 0, "unit": "%"}, {"measurement": "Botrytis inhibition % (in vivo)", "setting": "[5]; 0.01 mg per disk, 14 days at 4° C.", "value": 0, "unit": "%"}, {"measurement": "Botrytis inhibition % (in vivo)", "setting": "[5]; 0.023 mg per disk, 14 days at 4° C.", "value": 0, "unit": "%"}, {"measurement": "Botrytis inhibition % (in vivo)", "setting": "[5]; 0.04 mg per disk, 14 days at 4° C.", "value": 100, "unit": "%"}, {"measurement": "Botrytis inhibition % (in vivo)", "setting": "[5]; 0.08 mg per disk, 14 days at 4° C.", "value": 100, "unit": "%"}, {"measurement": "Botrytis inhibition % (in vivo)", "setting": "[5]; 0.16 mg per disk, 14 days at 4° C.", "value": 100, "unit": "%"}, {"measurement": "Botrytis inhibition % (in vivo)", "setting": "[5]; 0.31 mg per disk, 14 days at 4° C.", "value": 100, "unit": "%"}, {"measurement": "Botrytis inhibition % (in vivo)", "setting": "[5]; 0.63 mg per disk, 14 days at 4° C.", "value": 100, "unit": "%"}, {"measurement": "Botrytis inhibition % (in vivo)", "setting": "[5]; 1.25 mg per disk, 14 days at 4° C.", "value": 100, "unit": "%"}, {"measurement": "lowest rate with 100% control of Botrytis cinerea", "setting": "[5]; 14 days at 4° C.", "value": 0.04, "unit": "mg/disk"}, {"measurement": "appearance of phytotoxicity", "setting": "[5]; any of the rates evaluated (2.5 to 0.0024 mg/disk)", "value": "no evidence of phytotoxicity"}]}
